Data published in US20160280688A1, “SUBSTITUTED PHENYLALANINE DERIVATIVES” (BAYER PHARMA AKTIENGESELLSCHAFT, priority 2013, published 2016).
Structures can show the parent of a compound that is named as a salt.

Experiments:
[1] = target: T1, human factor XIa (Homo sapiens, UniProt P03951); experiment: Measurement of FXIa inhibition (fluorogenic peptide substrate Boc-Glu(OBzl)-Ala-Arg-AMC); type: biochemical; conditions: factor XIa from Kordia, 15 min preincubation, 30 min at 22° C., fluorescence
T1 construct: purchased Kordia
Description: To determine the factor XIa inhibition of the substances according to the invention, a biochemical test system is used which utilizes the reaction of a peptidic factor XIa substrate to determine the enzymatic activity of human factor XIa. Here, factor XIa cleaves from the peptic factor XIa substrate the C-terminal aminomethylcoumarin (AMC), the fluorescence of which is measured. The determinations are carried out in microtitre plates.
Test substances are dissolved in dimethyl sulphoxide and serially diluted in dimethyl sulphoxide (3000 μM to 0.0078 μM; resulting final concentrations in the test: 50 μM to 0.00013 μM). In each case 1 μl of the diluted substance solutions are placed into the wells of white microtitre plates from Greiner (384 wells). Subsequently, the following are added successively: 20 μl of assay buffer (50 mmol/l Tris buffer pH 7.4; 100 mmol/l sodium chloride; 5 mmol/l calcium chloride; 0.1% bovine serum albumin) and 20 μl of factor XIa from Kordia (0.45 nM in assay buffer). After 15 min of incubation, the enzyme reaction is started by addition of 20 μl of the factor XIa substrate Boc-Glu(OBzl)-Ala-Arg-AMC dissolved in assay buffer (10 μM in assay buffer) from Bachem, the mixture is incubated at room temperature (22° C.) for 30 min and fluorescence is then measured (excitation: 360 nm, emission: 460 nm). The measured emissions of the test batches with test substance are compared to those of control batches without test substance (only dimethyl sulphoxide instead of test substance in dimethyl sulphoxide), and IC50 values are calculated from the concentration/activity relationships.

[2] = test system: human and animal plasma; experiment: Determination of the anticoagulatory activity: activated partial thromboplastin time (aPTT) in plasma; type: biochemical; conditions: in vitro in plasma, C.K. Prest kit, 3 min at 37° C.
Description: The anticoagulatory activity of the test substances is determined in vitro in human and animal plasma (for example mouse, rat, rabbit, pig and dog plasma). To this end, blood is drawn off in a mixing ratio of sodium citrate/blood of 1:9 using a 0.11 molar sodium citrate solution as receiver. Immediately after the blood has been drawn off, it is mixed thoroughly and centrifuged at about 4000 g for 15 minutes. The supernatant is pipetted off.
The activated partial thromboplastin time (aPTT) is determined in the presence of varying concentrations of test substance or the corresponding solvent using a commercial test kit (C.K. Prest from Diagnostica Stago). The test compounds are incubated with the plasma and the PTT reagent (cephalin, kaolin) at 37° C. for 3 minutes. Coagulation is then started by addition of a 25 mM aqueous calcium chloride solution, and the time when coagulation occurs is determined. The concentration of test substance which brings about a 1.5-fold extension of the aPTT is determined Activity data from this test are listed in Table B below: […]

T1 sequence (P03951 388-625 limits assumed): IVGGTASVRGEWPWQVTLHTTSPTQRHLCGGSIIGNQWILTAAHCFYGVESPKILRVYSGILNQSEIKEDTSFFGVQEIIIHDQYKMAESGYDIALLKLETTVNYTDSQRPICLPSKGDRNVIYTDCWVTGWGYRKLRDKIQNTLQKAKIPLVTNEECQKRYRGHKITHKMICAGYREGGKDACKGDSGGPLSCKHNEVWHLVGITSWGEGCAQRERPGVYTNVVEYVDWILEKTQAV
T1 sequence (P03951 19-387 partner limits assumed): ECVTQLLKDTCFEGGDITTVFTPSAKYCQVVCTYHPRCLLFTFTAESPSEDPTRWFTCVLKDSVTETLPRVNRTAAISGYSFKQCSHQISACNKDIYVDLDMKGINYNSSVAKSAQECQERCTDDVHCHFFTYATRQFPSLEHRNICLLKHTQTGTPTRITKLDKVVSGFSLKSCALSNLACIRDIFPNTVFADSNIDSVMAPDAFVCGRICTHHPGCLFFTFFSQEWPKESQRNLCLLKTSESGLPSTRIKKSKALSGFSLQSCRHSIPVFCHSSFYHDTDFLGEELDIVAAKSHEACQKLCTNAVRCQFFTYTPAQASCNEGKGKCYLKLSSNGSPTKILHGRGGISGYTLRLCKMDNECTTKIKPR

IC50 [1]	Compound	aPTT (concentration of test substance which brings about a 1.5-fold extension of the aPTT) [2]
2.6 nM	NCC1CCC(C(=O)N[C@@H](Cc2ccc(-c3cnc4[nH]ccc4c3)cc2)C(=O)Nc2ccc(-c3nn[nH]n3)cc2)CC1 (stereo partly drawn) [Example 2, N-alpha-{[trans-4-(Aminomethyl)cyclohexyl]carbonyl}-4-(1H-pyrrolo[2,3-b]pyridin-5-yl)-N-[4-(2H-tetrazol-5-yl)phenyl]-L-phenylalaninamide hydrochloride]	–
1.4 nM	NCC1CCC(C(=O)N[C@@H](Cc2ccc(-c3cncc4ccccc34)cc2)C(=O)Nc2ccc(-c3nn[nH]n3)cc2)CC1 (stereo partly drawn) [Example 3, N-alpha-{[trans-4-(Aminomethyl)cyclohexyl]carbonyl}-4-isoquinolin-4-yl-N-[4-(2H-tetrazol-5-yl)phenyl]-L-phenylalaninamide hydrochloride]	0.14 µmol/L
5.6 nM	Cn1c(=O)[nH]c2ccc(-c3ccc(C[C@H](NC(=O)C4CCC(CN)CC4)C(=O)Nc4ccc(-c5nn[nH]n5)cc4)cc3)cc21 (stereo partly drawn) [Example 4, N-alpha-{[trans-4-(Aminomethyl)cyclohexyl]carbonyl}-4-(3-methyl-2-oxo-2,3-dihydro-1H-benzimidazol-5-yl)-N-[4-(2H-tetrazol-5-yl)phenyl]-L-phenylalaninamide hydrochloride]	0.24 µmol/L
5.1 nM	Cn1cc(-c2ccc(C[C@H](NC(=O)C3CCC(CN)CC3)C(=O)Nc3ccc(-c4nn[nH]n4)cc3)cc2)c(=O)[nH]c1=O (stereo partly drawn) [Example 5, N-alpha-{[trans-4-(Aminomethyl)cyclohexyl]carbonyl}-4-(1-methyl-2,4-dioxo-1,2,3,4-tetrahydropyrimidin-5-yl)-N-[4-(2H-tetrazol-5-yl)phenyl]-L-phenylalaninamide hydrochloride]	0.06 µmol/L
9 nM	NC[C@H]1CC[C@H](C(=O)N[C@@H](Cc2ccc(-c3cccc4[nH]ncc34)cc2)C(=O)Nc2ccc(-c3nn[nH]n3)cc2)CC1 [Example 6, N-alpha-{[trans-4-(Aminomethyl)cyclohexyl]carbonyl}-4-(1H-indazol-4-yl)-N-[4-(2H-tetrazol-5-yl)phenyl]-L-phenylalaninamide hydrochloride]	0.41 µmol/L
4.6 nM	Cc1nc2cc(-c3ccc(C[C@H](NC(=O)[C@H]4CC[C@H](CN)CC4)C(=O)Nc4ccc(-c5nn[nH]n5)cc4)cc3)ccc2[nH]1 [Example 7, N-alpha-{[trans-4-(Aminomethyl)cyclohexyl]carbonyl}-4-(2-methyl-1H-benzimidazol-5-yl)-N-[4-(2H-tetrazol-5-yl)phenyl]-L-phenylalaninamide hydrochloride]	–
1.9 nM	NC[C@H]1CC[C@H](C(=O)N[C@@H](Cc2ccc(-c3cccc4[nH]nc(N)c34)cc2)C(=O)Nc2ccc(-c3nn[nH]n3)cc2)CC1 [Example 10, 4-(3-Amino-1H-indazol-4-yl)-N-alpha-{[trans-4-(aminomethyl)cyclohexyl]carbonyl}-N-[4-(2H-tetrazol-5-yl)phenyl]-L-phenylalaninamide hydrochloride]	–
3.2 nM	Cn1cc(-c2ccc(C[C@H](NC(=O)[C@H]3CC[C@H](CN)CC3)C(=O)Nc3ccc(-c4nn[nH]n4)cc3)cc2)c(=O)n(C)c1=O [Example 11, N-alpha-{[trans-4-(Aminomethyl)cyclohexyl]carbonyl}-4-(1,3-dimethyl-2,4-dioxo-1,2,3,4-tetrahydropyrimidin-5-yl)-N-[4-(2H-tetrazol-5-yl)phenyl]-L-phenylalaninamide hydrochloride]	–
6.6 nM	NCCn1cnc2cc(-c3ccc(C[C@H](NC(=O)C4CCC(CN)CC4)C(=O)Nc4ccc(-c5nn[nH]n5)cc4)cc3)ccc21 (stereo partly drawn) [Example 13, 4-[1-(2-Aminoethyl)-1H-benzimidazol-5-yl]-N-alpha-{[trans-4-(aminomethyl)cyclohexyl]-carbonyl]-N-[4-(2H-tetrazol-5-yl)phenyl]-L-phenylalaninamide hydrochloride]	0.18 µmol/L
6.8 nM	NC[C@H]1CC[C@H](C(=O)N[C@@H](Cc2ccc(-c3c[nH]c(=O)[nH]c3=O)cc2)C(=O)Nc2ccc(-c3nn[nH]n3)cc2)CC1 [Example 14, N-alpha-{[trans-4-(Aminomethyl)cyclohexyl]carbonyl}-4-(2,4-dioxo-1,2,3,4-tetrahydropyrimidin-5-yl)-N-[4-(2H-tetrazol-5-yl)phenyl]-L-phenylalaninamide hydrochloride]	–
3.8 nM	Cn1cnc2ccc(-c3ccc(C[C@H](NC(=O)[C@H]4CC[C@H](CN)CC4)C(=O)Nc4ccc(-c5nn[nH]n5)cc4)cc3)cc21 [Example 15, N-alpha-{[trans-4-(Aminomethyl)cyclohexyl]carbonyl}-4-(1-methyl-1H-benzimidazol-6-yl)-N-[4-(2H-tetrazol-5-yl)phenyl]-L-phenylalaninamide hydrochloride]	–
3.2 nM	Cn1cnc2cc(-c3ccc(C[C@H](NC(=O)[C@H]4CC[C@H](CN)CC4)C(=O)Nc4ccc(-c5nn[nH]n5)cc4)cc3)ccc21 [Example 16, N-alpha-{[trans-4-(Aminomethyl)cyclohexyl]carbonyl}-4-(1-methyl-1H-benzimidazol-5-yl)-N-[4-(2H-tetrazol-5-yl)phenyl]-L-phenylalaninamide hydrochloride]	–
0.5 nM	NC[C@H]1CC[C@H](C(=O)N[C@@H](Cc2ccc(-c3cn(Cc4ccccc4)c(=O)[nH]c3=O)cc2)C(=O)Nc2ccc(-c3nn[nH]n3)cc2)CC1 [Example 17, N-alpha-{[trans-4-(Aminomethyl)cyclohexyl]carbonyl}-4-(1-benzyl-2,4-dioxo-1,2,3,4-tetrahydropyrimidin-5-yl)-N-[4-(2H-tetrazol-5-yl)phenyl]-L-phenylalaninamide hydrochloride]	–
2.5 nM	Cc1ccc2[nH]ncc2c1-c1ccc(C[C@H](NC(=O)[C@H]2CC[C@H](CN)CC2)C(=O)Nc2ccc(-c3nn[nH]n3)cc2)cc1 [Example 18, N-alpha-{[trans-4-(Aminomethyl)cyclohexyl]carbonyl}-4-(5-methyl-1H-indazol-4-yl)-N-[4-(2H-tetrazol-5-yl)phenyl]-L-phenylalaninamide hydrochloride]	–
37 nM	Cc1nc2c(cc1-c1ccc(C[C@H](NC(=O)[C@H]3CC[C@H](CN)CC3)C(=O)Nc3ccc4[nH]c(=O)[nH]c4c3)cc1)NCCN2 [Example 28, N-alpha-{[trans-4-(Aminomethyl)cyclohexyl]carbonyl}-4-(6-methyl-1,2,3,4-tetrahydropyrido[2,3-b]pyrazin-7-yl)-N-(2-oxo-2,3-dihydro-1H-benzimidazol-5-yl)-L-phenylalaninamide hydrochloride]	1.42 µmol/L
3.9 nM	NC[C@H]1CC[C@H](C(=O)N[C@@H](Cc2ccc(-c3ccc4c(c3)CNC4=O)cc2)C(=O)Nc2ccc(-c3nc(C(F)(F)C(F)(F)C(=O)O)n[nH]3)cc2)CC1 [Example 29, 3-[5-(4-{[N-{[trans-4-(Aminomethyl)cyclohexyl]carbonyl}-4-(1-oxo-2,3-dihydro-1H-isoindol-5-yl)-L-phenylalanyl}amino}phenyl)-1H-1,2,4-triazol-3-yl]-2,2,3,3-tetrafluoropropanoic acid hydrochloride]	0.28 µmol/L
